The source of these data is patent US8202844B2, “Indole antiviral compositions and methods” (The Regents of the University of Michigan, priority 2003, dated 2012).

The test system of data set [1] is human cytomegalovirus (HCMV). Briefly: HCMV plaque reduction assay. It counts as cell-based, HCMV Towne strain in HFF cells. The following applies: for IC50: read-out: 50% Inhibitory Concentration, HCMV Activity. The procedure: (§1) Virological procedures. The Towne strain, plaque-purified isolate Po, of HCMV was kindly provided by Dr. Mark Stinski, University of Iowa. The KOS strain of HSV-1 was used in most experiments and was provided by Dr. Sandra K. Weller, University of Connecticut. Stock HCMV was prepared by infecting HFF cells at a multiplicity of infection (m.o.i.) of <0.01 plaque-forming units (p.f.u.) per cell as detailed previously (Turk, et al., Agents Chemother. 1987, 31, 544-550, herein incorporated by reference). High titer HSV-1 stocks were prepared by infecting KB cells at an m.o.i. of <0.1 also as detailed previously (see Turk et al.). Virus titers were determined using monolayer cultures of HFF cells for HCMV and monolayer cultures of BSC-1 cells for HSV-1 as described earlier (Prichard, et al., J. Virol. Methods 1990, 28, 101-106, herein incorporated by reference). Briefly, HFF or BSC-1 cells were planted as described above in 96-well cluster dishes and incubated overnight at 37° C. The next day cultures were inoculated with HCMV or HSV-1 and serially diluted 1:3 across the remaining eleven columns of the 96-well plate. After virus adsorption the inoculum was replaced with fresh medium and cultures were incubated for seven days for HCMV, two or three days for HSV-1. Plaques were enumerated under 20-fold magnification in wells having the dilution which gave 5 to 20 plaques per well. Virus titers were calculated according to the following formula: Titer (p.f.u./mL)=number of plaques×5×3^n; where n represents the n^th dilution of the virus used to infect the well in which plaques were enumerated.
HCMV plaque reduction assay. HFF cells in 24-well cluster dishes were infected with approximately 100 p.f.u. of HCMV per cm^2 cell sheet using the procedures detailed above. Following virus adsorption, the compounds, prepared as 10 mg/mL stock solutions in DMSO were diluted with growth medium and were added to duplicate wells in four to eight selected concentrations. After incubation at 37° C. for 7-10 days, cell sheets were fixed, stained with crystal violet and microscopic plaques enumerated as described above. Drug effects were calculated as a percentage of reduction in number of plaques in the presence of each drug concentration compared to the number observed in the absence of drug.
(§2) Data Analysis. Dose response relationships were used to quantitate drug effects by linear regression of the percent inhibition of parameters derived in the preceding assays against log10 drug concentrations. Fifty percent inhibitory concentrations (IC50's) were calculated from the linear portions of the regression lines. Samples containing positive controls (acyclovir for HSV-1, GCV for HCMV, and 2-acetylpyridine thiosemicarbazone for cytotoxicity) were used in all assays.
(In general: Plaque reduction counts the foci of infection that form in a cell layer.)

Data set [2] relates to herpes simplex virus type 1 (HSV-1). Kind of data set: HSV-1 ELISA. It is filed as cell-based, HSV-1 KOS strain in BSC-1 cells. The protocol:
as §1
HSV-1 ELISA. An ELISA was employed (Prichard, et al., Antiviral Res. 1990, 14, 181-206, herein incorporated by reference) to detect HSV-1. Ninety-six-well cluster dishes were planted with 10,000 BSC-1 cells per well in 200 μL per well of MEM(E) plus 10% calf serum. After overnight incubation at 37° C., selected drug concentrations in quadruplicate and HSV-1 at a concentration of 100 p.f.u./well were added. Following a 3-day incubation at 37° C., medium was removed, plates were blocked, rinsed, and horse radish peroxidase conjugated rabbit anti-HSV-1 antibody was added. Following removal of the antibody containing solution, plates were rinsed, and then developed by adding 150 μl per well of a solution of tetramethylbenzidine as substrate. The reaction was stopped with H2SO4 and absorbance was read at 450 and 570 nm. Drug effects were calculated as a percentage of the reduction in absorbance in the presence of each drug concentration compared to absorbance obtained with virus in the absence of drug.
as §2
In general terms: ELISA stands for enzyme-linked immunosorbent assay.

Data set [3] is described as follows: Cytotoxicity in stationary HFF cells, microscopic inspection. It is filed as cell-based. The following applies: human, read-out: 50% Inhibitory Concentration, HFF Cytotoxicity. The procedure: (§3) Cytotoxicity assays. Two different assays were used for routine cytotoxicity testing. (i) Cytotoxicity produced in stationary HFF cells was determined by microscopic inspection of cells not affected by the virus used in plaque assays (Turk, et al., Agents Chemother. 1987, 31, 544-550, herein incorporated by reference). (ii) The effect of compounds during two population doublings of KB cells was determined by crystal violet staining and spectrophotometric quantitation of dye eluted from stained cells as described earlier (Prichard, et al., Antiviral Res. 1991, 35, 1060-1065, herein incorporated by reference). Briefly, 96-well cluster dishes were planted with KB cells at 3000-5000 cells per well. After overnight incubation at 37° C., test compound was added in quadruplicate at six to eight concentrations. Plates were incubated at 37° C. for 48 h in a CO2 incubator, rinsed, fixed with 95% ethanol, and stained with 0.1% crystal violet. Acidified ethanol was added and plates read at 570 nm in a spectrophotometer designed to read 96-well ELISA assay plates.
as §2

A short description of data set [4]: Cytotoxicity in growing KB cells, crystal violet staining. It counts as cell-based. The following applies: human, read-out: 50% Inhibitory Concentration, KB Cytotoxicity. The procedure:
as §3, §2

In data set [5] the test system is human cytomegalovirus (HCMV). Kind of data set: Literature activity against HCMV replication in vitro. It counts as cell-based.
Data set [6] has as its system human cytomegalovirus (HCMV). The following applies: cited from earlier work; for activity against HCMV: literature reports.
A further data set has as its system uninfected host cells. The following applies: cited from earlier work.
The conditions of data set [7]: Good et al.; cited from earlier work.
The mark [8] stands for this setting: Human alphaherpesvirus 1, BSC-1, read-out: 50% Inhibitory Concentration, HSV-1 Activity.
The mark [9] stands for this setting: Human betaherpesvirus 5, plaque reduction in HFF cells.
Where [10] appears, read: Human alphaherpesvirus 1, ELISA in BSC-1 cells, read-out: 50% Inhibitory Concentration, HSV-1 Activity.
Setting [11] is: stationary human foreskin fibroblasts (HFF cells).

Where two headings read alike, the source gives them in different places.

As for `CC(=O)OC[C@H]1O[C@@H](n2c(Cl)c(C(C)=O)c3cc(Cl)c(Cl)cc32)[C@H](O)[C@@H]1O` [Compound 4.43, 2,5,6-Trichloro-3-acetyl-1-(5-O-acetyl-β-D-ribofuranosyl)indole], the “antiviral activity” value in data set [1] (virus not specified, HCMV and HSV-1 were used) is “comparable to the fully deprotected analog”.

What is called CC50 is the concentration at which the toxic effect on the cells reaches its halfway point. Regarding `O=Cc1c(Cl)n([C@@H]2O[C@H](CO)[C@@H](O)[C@H]2O)c2cc(Cl)c(Cl)cc12` [Compound 4.3, 2,5,6-trichloro-3-formyl-1-(β-D-ribofuranosyl)indole], the IC50 is 200 nM in data set [1] (Human betaherpesvirus 5, HFF); 40 µM in data set [2] (setting [8]); 45 µM in data set [3]; 230 nM in data set [6] (Chen thesis, read-out: IC50 against HCMV). Further, the IC50 at 48 h in data set [4] worked out at 45 µM. The “selectivity index (calculated by dividing the CC50 by the IC50)” value in data set [5] is listed as 195. Besides, in data set [6], the “activity against HCMV” value is on record as “even more active than TCRB”. Further, the CC50 in the data set on uninfected host cells (Chen thesis, read-out: CC50 against uninfected host cells) was 45 µM.

Turning to `COC(=N)c1c(Cl)n([C@@H]2O[C@H](CO)[C@@H](O)[C@H]2O)c2cc(Cl)c(Cl)cc12` [Compound 4.34, Methyl 2,5,6-Trichloro-1-(β-D-ribofuranosyl)indole-3-formimidate], the results for the IC50 in data set [1] (setting [9]), in data set [2] (setting [10]) and in data set [3] (setting [11]) were 400 nM, 70 µM and 100 µM, respectively. Moreover, in data set [4], the IC50 at 48 h was determined as 90 µM.

As for `OC[C@H]1O[C@@H](n2c(Cl)nc3cc(Cl)c(Cl)cc32)[C@H](O)[C@@H]1O` [TCRB, 2,5,6-trichloro-1-(β-D-ribofuranosyl)benzimidazole], in data set [6], the “activity against HCMV” value is “potent and selective inhibitor”. Also, the “in vivo stability” value in data set [7] was “in vivo instability”.

Take `CC(C)Nc1nc2cc(Cl)c(Cl)cc2n1[C@H]1O[C@@H](CO)[C@H](O)[C@@H]1O` [Compound 1263W94]: in data set [6], the “activity against HCMV” value was “very active”.

In the case of `C[C@H]1O[C@@H](n2c(Cl)c(C=O)c3cc(Cl)c(Cl)cc32)[C@H](O)[C@@H]1O` [Compound 4.97, 2,5,6-Trichloro-3-formyl-1-(5-deoxy-β-D-ribofuranosyl)indole], the IC50 turned out to be 300 nM in data set [1] (Human betaherpesvirus 5, HFF); 20 µM in data set [2] (setting [8]); 32 µM in data set [3]. Further, the IC50 at 48 h in data set [4] amounted to 25 µM.

As for `OC[C@H]1O[C@@H](n2c(Cl)cc3cc(Cl)c(Cl)cc32)[C@H](O)[C@@H]1O` [Compound 4.2, 2,5,6-trichloro-1-(β-D-ribofuranosyl)indole, reference compound], the “activity against HCMV” value in data set [6] was “inactive”. In the data set on uninfected host cells (Chen et al.), the “cytotoxicity” value is “non-cytotoxic”.

Regarding `CC(=O)OC[C@H]1O[C@@H](n2c(Br)c(C=O)c3cc(Cl)c(Cl)cc32)[C@H](O)[C@@H]1O` [Compound 4.136, 5,6-Dichloro-2-bromo-3-formyl-1-(5-O-acetyl-β-D-ribofuranosyl)indole], the IC50 in data set [1] (Human betaherpesvirus 5, HFF) is 300 nM; in data set [2] (setting [8]), 15 µM; in data set [3], 32 µM. Moreover, the IC50 at 48 h in data set [4] turned out to be 40 µM.

Regarding `CN(C)c1c(C#N)c2cc(Cl)c(Cl)cc2n1[C@@H]1O[C@H](CO)[C@@H](O)[C@H]1O` [Compound 4.14, 5,6-Dichloro-2-dimethylamino-3-cyano-1-(β-D-ribofuranosyl)indole], the IC50 is 17000 nM in data set [1] (setting [9]), greater than 100 µM in data set [2] (setting [10]) and 100 µM in data set [3] (setting [11]). In addition, in data set [4], the IC50 at 48 h was 90 µM.
